{"source": "patent US10240133B2", "about": "“ERK-derived peptides and uses thereof” (Yeda Research and Development Co. Ltd., priority 2013, dated 2019)", "key": {"[1]": {"test_system": "other cell lines examined", "assay": "Apoptosis (TUNEL, PARP-1 cleavage)", "type": "cell-based", "description": "(§1) FIGS. 5A-5D illustrate that the EPE peptide leads to apoptosis of B-Raf mutant cancer cells. (A) The EPE peptide affects the morphology of treated cells. The indicated cells were treated with either the EPE or Scr peptides, DMSO, or taxol for 72 h, and photographed by a light microscope. (B) The EPE peptide induces apoptosis in melanoma cells detected by TUNEL. The indicated cell lines were treated as in A for 24 h. Apoptosis was detected by TUNEL staining. Images were obtained by florescence microscope. (C) Quantification of B. The bar-graph represents percent of apoptotic cells calculated in 10 different fields. (D) The EPE peptide induces apoptosis of melanoma cells detected by PARP cleavage. The indicated cell lines were treated as in (A) for 24 h. Cell extracts were subjected to Western blotting with αPARP Ab.\nCells were seeded on glass cover slips in a 12-wells plate at 25% confluence with medium containing 1% of FCS. Peptides (EPE or Scr), DMSO, or U0126 in a final concentration of 10 μM, were added after 4 h (considered as time “0”). TUNEL staining was performed at 24 h after the treatment according to manufacturer instruction (Roche Applied Science, Nutley, N.J., USA). Briefly, the medium was removed and cells were fixed with 3% of paraformaldehyde (1.5 h, 23° C.). Cells were rinsed twice with PBS and permeabilized with 0.1% Triton X-100 and 0.1% sodium citrate for 2 min on ice. Cells were rinsed twice with PBS and 28 μl of TUNEL reaction mixture (25 μl of TUNEL label, 2.5 μl of TUNEL enzyme and 0.1 mg/ml of DAPI) was added directly on top of the slide, cells were incubated for 16 h in humid box at 37° C. Cover slips were rinsed three times with PBS and mounted on microscope slides. The slides were dried and then subjected to image acquisition by a florescence microscope. For morphology assay, the cells were seeded at approximately 25% confluence in 6 cm plates with medium containing 1% FCS. Peptides (EPE and Scr) or DMSO or U0126 in a final concentration of 10 μM, were added after 4 h (considered to be time 0), 24 h and 48 h. Images were obtained by a light microscope (Olympus BX51) after 72 h."}, "[2]": {"test_system": "N-Ras transformed melanoma cells LOXIMVI", "assay": "Cell viability, EPE peptide compared with PLX4032", "type": "cell-based", "settings": "EPE 10 μM, PLX4032 1 μM, 1% FCS", "description": "(§2) FIGS. 3A-3B illustrate that EPE peptide prevents proliferation of cancer but not normal cells. (A) Effect of the EPE peptide on the proliferation of various cell lines. Sixteen cancer and four “normal” immortalized cell lines were treated with either EPE or scrambled peptides as described above. Viable cells were assayed by Methylene Blue at 48 or 72 hours after cell seeding. The data from at least three independent experiments is presented as percent of the amount of viable cells/initial cell number, where initial cell number was considered as 100. (B) Comparison of the effects of the EPE-peptide and Raf inhibitor PLX4032 on cell viability. NHEM-Ad, LOXIMVI, A2352, Hela MDA-MB-231, and DU-145 cells were treated with EPE peptide, scrambled peptide, (10 μM), PLX4032 (1 μM), DMSO control, or no treatment at 1% FCS. The number of cells was detected as above. The graphs present the kinetic of cell growth at the indicated times. All experiments were repeated 3 times in triplicates.\n(§3) All cells, except of MCF-10A, were seeded into 12-well cell plates in 1% FBS medium. MCF-10A cells were seeded in their complete medium diluted 5 fold. DMSO, Scr peptide, EPE peptide, or U0126 (final concentration of 10 μM each) were added to the appropriated wells four hours later. Every day medium was changed to fresh one containing the same agents. The number of viable cells was measured by Methylene Blue assay at 72 h after cell seeding. Shortly, cells were fixed with 4% Formaldehyde for 2 h at 23° C., washed once with 0.1M Borate Buffer pH 8.5 and stained with of 1% Methylene Blue in 0.1M Borate Buffer for 10 min. Color was extracted by adding 0.1 M HCl for 3 h at 23° C., and examined at 595 nm. For time course experiments, viable cells were measured at 0, 24, 48, 72 and 96 h after cell seeding. For dose response experiments we treaded the cells with 0.1, 1, 3, 10, or 30 μM of peptides for 72 h, as described above."}, "[3]": {"test_system": "non-transformed melanocytes (NHEM-Ad)", "assay": "Cell viability, EPE peptide compared with PLX4032", "type": "cell-based", "settings": "EPE 10 μM, PLX4032 1 μM, 1% FCS", "description": "as §2, §3"}, "A2352 xenografts": {"test_system": "A2352 xenografts", "assay": "Tumor disappearance and recurrence in A2352 xenografts, EPE peptide compared with PLX4032", "type": "in vivo, SCID mice", "description": "FIGS. 6A-6B illustrate that the EPE peptide prevents the growth of human tumor xenografts. CD-1 nude mice were inoculated with MDA-MB-231, LOXIMVI and HCT-116 cells, and SKID mice were inoculated with A2352 cells. Upon tumors establishment, the mice were treated intravenously with the DMSO as well as EPE or Scr peptides in the indicated doses, 3 times a week. The results are averages of 5 mice in each experimental group. The X, Y, Z dimensions of the tumors were measured with a caliper, and the volume was calculated accordingly. The significance of all experiments was at least P<0.001. (B) The EPE peptide prevents tumor recurrence on melanoma xenograft. SCID mice were inoculated with A2352 cells. Upon establishment of tumors mice were treated intravenously with 15 mg/kg EPE peptide (n=7) or intraperitonealy with 15 mg/kg PLX4032 (n=5), at the indicated dose 3 times a week. Tumor size was recorded at the same time using a caliper. Following 3 weeks of treatment, mice were kept for further evaluation monitoring for any tumor recurrence of the effective treated melanoma xenografts. Experiment was concluded 110 days post inoculation (11 weeks after the last treatment) and the overall state of the animals was evaluated. sac=sacrificed, recur=recurrence, met=metastasis.\nTumor dimensions were measured with a digital sliding caliper."}, "[4]": {"test_system": "PLX-4032 and U0126 resistant A2352 melanoma cells", "assay": "Proliferation of inhibitor-resistant melanoma cells", "type": "cell-based", "protocol": "(A) A2352 melanoma cells resistant to either PLX4032 (B-Raf) or U0126 (MEK) inhibitors were treated with DMSO, EPE or Scr peptide (10 μM), U0126 (10 μM), PLX4032 (1 μM), Wortmannin (0.5 μM) or Taxol (25 μg/ml). Presented as percent of viable cells at 72 h/initial cell number. […] Methylene blue assay was performed to quantify viable cells. Experiments were done twice in triplicate. Data presented as fold change.\nA2352 cells were supplemented with either PLX4032 (B-Raf inhibitor, 1 μM), or U0126 (MEK inhibitor, 10 μM) for 45 days. […]"}, "ERK1/2": {"test_system": "ERK1/2", "assay": "Nuclear translocation of ERK (fluorescence microscopy, subcellular fractionation)", "type": "cell-based", "settings": "HeLa cells", "description": "FIGS. 1A-1F illustrate that EPE peptide prevents nuclear translocation of ERK1. A2352 (A), MDA-MB-231 (B) HeLa (C), T47D (D), NHEM-AD (E) and HB2 (F) cells were serum-starved, pretreated with the EPE peptides, Scr peptide (10 μM, 2 h) DMSO and then either stimulated with TPA (250 nM, 15 min) or left untreated (NS) as control. The cells were stained with αgERK1/2 Ab and DAPI. Scale-bar—15 μm.\nFIGS. 12A-12D illustrate that the EPE peptide inhibits the nuclear translocation of ERK1/2. Serum-starved (0.1% FCS, 16 hr) A2352 (FIG. 12A), HeLa (FIG. 12B), MDA-MB-231 (FIG. 12C), or LOXMVI (FIG. 12D) cells were pretreated with EPE or scrambled peptides (10 μM, 2 hr). Cells were then stimulated with EGF (50 ng/ml) or left untreated, and then harvested. Subcellular fractionation of cytoplasm and nucleus was performed as below, and fractions were subjected to Western blot analysis with the indicated Abs. Subcellular Fractionation was performed as follows: Harvested cells were resuspended in 200 μl of buffer H containing 0.1% Nonidet P-40. The lysates were mixed vigorously and centrifuged immediately to yield supernatants containing the cytosolic fraction. Nuclear proteins were extracted by resuspending the nuclear pellets in 200 μl of extraction buffer, waiting on ice for 5 min, brief sonication (2×5 sec, 40 W, 4° C.), vigorous mixing, and centrifugation. Both cytosolic and nuclear fractions were subjected to Western blotting.\nA2185 (A) and A2352 (B) B-Raf melanoma cells were serum-starved (16 hours, 0.1% FBS), and then either pretreated with the EPE peptides (10 μM, 2 hours) or left untreated. Then, the cells were stimulated with TPA ([…], 20 min), or left untreated (NS) DMSO as control. The cells were stained with either anti ERK1 (Santa Cruz, C16) or anti ERK2 (C14, Santa Cruz) Abs and DAPI. (C) Quantification of the number of cell in which ERK1 or ERK2 were mostly (>80%) localized in the nucleus was performed by counting 5 fields containing 100 cells per field.\nFIGS. 15A-15B illustrate that the EPE peptide prevents nuclear accumulation/translocation of ERK1/2 in PLX4032-resistant melanoma cells. A2352 that were made resistant to PLX4032 (as described under Material and Methods) and A4132 PLX4032 resistant melanoma cell from patient were serum-starved (16 hours, 0.1%), pretreated with the EPE or scrambled peptide (10 μM, 2 hours) and then either stimulated with TPA (100 nM, 20 min) or left untreated (NT) as control. The cells were stained with αgERK1/2 Ab and DAPI.\nCells were fixed in 3% paraformaldehyde in PBS (20 min, 23° C.), and then permeabilized and blocked with 0.2% Triton X-100 in PBS-BSA (2%) for 20 min at 23° C. The fixed cells were sequentially incubated with appropriated Abs, (diluted in 10 μg/ml BSA/PBS) for 1 h, followed by either Cy-2 or rhodamine-conjugated secondary Abs and DAPI (diluted in BSA/PBS, 1:200) for 1 h. To follow the subcellular localization of the biotin-conjugated peptides, cells were incubated with Avidin-FITC (diluted in BSA/PBS 1:400) and DAPI. Slides were analyzed and photographed by a fluorescent microscope (Nikon, Japan, 600× magnification)."}, "B-Raf melanoma cells": {"test_system": "B-Raf melanoma cells", "assay": "Morphology assay (light microscopy)", "type": "cell-based", "settings": "10 μM", "description": "as §1\nCells were seeded on glass cover slips in a 12-wells plate at 25% confluence with medium containing 1% of FCS. Peptides (EPE or Scr), DMSO, or U0126 in a final concentration of 10 μM, were added after 4 h (considered as time “0”). TUNEL staining was performed at 24 h after the treatment according to manufacturer instruction (Roche Applied Science, Nutley, N.J., USA). Briefly, the medium was removed and cells were fixed with 3% of paraformaldehyde (1.5 h, 23° C.). Cells were rinsed twice with PBS and permeabilized with 0.1% Triton X-100 and 0.1% sodium citrate for 2 min on ice. Cells were rinsed twice with PBS and 28 μl of TUNEL reaction mixture (25 μl of TUNEL label, 2.5 μl of TUNEL enzyme and 0.1 mg/ml of DAPI) was added directly on top of the slide, cells were incubated for 16 h in humid box at 37° C. Cover slips were rinsed three times with PBS and mounted on microscope slides. The slides were dried and then subjected to image acquisition by a florescence microscope. For morphology assay, the cells were seeded at approximately 25% confluence in 6 cm plates with medium containing 1% FCS. Peptides (EPE and Scr) or DMSO or U0126 in a final concentration of 10 μM, were added after 4 h (considered to be time 0), 24 h and 48 h. […]"}}}
{"compound": "OO", "note": "[H2O2]", "values": [{"measurement": "apoptosis / cell death", "setting": "[1]", "result": "clear ability to undergo a Taxol or H2O2-induced cell death"}]}
{"compound": "CCCS(=O)(=O)Nc1ccc(F)c(C(=O)c2c[nH]c3ncc(-c4ccc(Cl)cc4)cc23)c1F", "note": "[PLX4032, reference compound]", "values": [{"measurement": "viability", "setting": "[2]", "result": "not sensitive to PLX4032"}, {"measurement": "viability", "setting": "[3]", "result": "strong inhibitory effect"}, {"measurement": "time to complete disappearance of tumors", "setting": "A2352 xenografts; 15 mg/kg, 3 times a week", "result": "13 to 23", "unit": "days"}, {"measurement": "tumor disappearance", "setting": "A2352 xenografts; 15 mg/kg, 3 times a week, 3 weeks, EPE i.v. (n=7), PLX4032 i.p. (n=5), initial ~80 mm3 tumors", "result": "complete disappearance in three mice"}, {"measurement": "time to development of resistance (one mouse)", "setting": "A2352 xenografts; during treatment", "result": "≤ 13", "unit": "days"}, {"measurement": "mice with tumor recurrence", "setting": "A2352 xenografts; follow up for up to 11 weeks after last treatment", "result": "3 out of 5"}]}
{"compound": "CC(=O)O[C@H]1C(=O)[C@@]2(C)[C@H]([C@H](OC(=O)c3ccccc3)[C@]3(O)C[C@H](OC(=O)[C@H](O)[C@@H](NC(=O)c4ccccc4)c4ccccc4)C(C)=C1C3(C)C)[C@]1(OC(C)=O)CO[C@@H]1C[C@@H]2O", "note": "[Taxol, reference compound]", "values": [{"measurement": "effect in resistant compared with non-resistant cells", "setting": "[4]", "result": "as effective in non-resistant, as resistant cells"}, {"measurement": "apoptosis / cell death", "setting": "[1]", "result": "clear ability to undergo a Taxol or H2O2-induced cell death"}]}
{"compound": "N#CC(=C(/N)Sc1ccccc1N)/C(C#N)=C(\\N)Sc1ccccc1N", "note": "[U0126, reference compound]", "values": [{"measurement": "TPA-induced nuclear translocation of ERK", "setting": "ERK1/2", "result": "inhibition"}, {"measurement": "cell morphology", "setting": "B-Raf melanoma cells", "result": "A similar appearance, albeit a weaker one"}]}
{"compound": "GQLNHILGILGSPSQED (Synthetic peptide (SPS)) [SPS peptide, NTS-derived peptide of ERK]", "values": [{"measurement": "TPA-induced nuclear translocation of ERK", "setting": "ERK1/2", "result": "prevented TPA-induced nuclear translocation of ERK"}]}
